According to patent US12624068B2, “Exon skipping by peptide nucleic acid derivatives” (OliPass Corporation, priority 2016, dated 2026):
[C(1O2)] = modified PNA monomer acting as cytosine, C(pOq) type, 1O2; [A(5)] = modified PNA monomer acting as adenine, A(p) type, p=5; [G(6)] = modified PNA monomer acting as guanine, G(p) type, p=6; {Fethoc} = N-terminal Fethoc cap; {NH2} = C-terminal amide

Legend:
[1] = system: mouse dystrophin pre-mRNA; assay: Dystrophin nested PCR (Method B) in muscles of mdx mice; assay type: in vivo; settings: skeletal muscles sampled in Week 7
Experimental: The RNA samples obtained in “DMD Example 1” were subjected to a one-step cDNA synthesis using a set of exon-specific primers of [DMD-exon 20_forward: (5'→3') […] NO: 107); and DMD-exon 26_reverse: (5'→3') […] NO: 108)]. The cDNA samples were then analyzed by nested PCR against another set of exon-specific primers of [DMD-exon 20n_forward: (5'→3') […] NO: 109); and DMD-exon 26n_reverse: (5'→3') […] NO: 110)]. [Nested PCR for Exon Skipping (Method B)] Muscle samples were homogenized by grinding in a tube kept on ice, and subjected to total RNA extraction with 1 mL trizol reagent (Invitrogen) per ca 100 mg muscle tissue. The total RNAs were evaluated for exon skipping by nested PCR as described in “DMD Example 2”.

mdx mice = assay: Rotarod test in mdx mice; assay type: in vivo, mouse; settings: 100 pmole/Kg subcutaneous 3× per week
Experimental: Given with the exon skipping potential, “DMD-ASO 1” was evaluated in mdx mice for its ability to improve muscle function by rotarod test as described below.
[Grouping] 6 weeks old male mdx mice were trained for rotarod test over a period of 2 weeks, and then randomly assigned into 3 groups of 0 (negative control), 100 and 1,000 pmole/Kg “DMD-ASO 1” based on individual scores by rotarod test in Day 0, i.e., the day of grouping. (N=10 per group)
[ASO Treatment] The injection solutions were prepared by serially diluting the ASO to 20 nM and 200 nM in PBS. Animals were subcutaneously administered with vehicle (PBS, negative control), 20 nM “DMD-ASO 1” (100 pmole/Kg), or 200 nM “DMD-ASO 1” (1,000 pmole/Kg) at 5 mL/Kg, 3× per week over a period of Day 0 to Day 21.
[Rotarod Test and Statistical Analysis] Mice were subjected to rotarod test on a rotarod apparatus (Model #47650, Ugo Basile) with an acceleration schedule of 4 rpm to 45 rpm over 60 seconds. The latency to fall (i.e., the duration that animal remained on the rotarod) was scored for each individual animal. Statistical significance was evaluated by student's t-test against the negative control group.

[2] = system: sodium current in PC3 cells; assay: CoroNa assay of sodium current in PC3 cells; assay type: cell-based, human; settings: 30 hours
Experimental: Cellular sodium current is measured by patch clamp. As sodium ions enter cell, the intra-cellular sodium ion level increases. The intra-cellular sodium level can be probed using a sodium ion sensitive dye. “CoroNa Green” is a dye with a sodium ion chelator of crown ether type. Upon chelation with a sodium ion, “CoroNa Green” emits green fluorescence. “CoroNa Green” has been used to indirectly measure the intra-cellular sodium level. […] [Proc. Natl. Acad. Sci. USA vol 106(38), 16145-16150 (2009)]
PC3 cells are known to abundantly express the human SCN9A mRNA, although there are other SCN subtypes concomitantly expressed. [Br J. Pharmacol. vol 156, 420-431 (2009)] Thus an inhibition of SCN9A mRNA expression may lead to a considerable reduction of the sodium current in PC3 cells, if the sodium ion current by the Nav1.7 sodium channel subtype occupies a marked portion of the total sodium ion current in PC3 cells. It is note that the SCN9A mRNA encodes the Nav1.7 sodium channel subtype.
“SCN-ASO 7” was evaluated for its ability to inhibit the sodium ion current in PC3 cells using “CoroNa Green” as follows.
[ASO Treatment] PC3 cells grown in 35 mm culture dish containing 2 mL F-12K medium were treated with “SCN-ASO 7” at 0 zM (negative control), 100 zM or 1 aM.
[CoroNa Assay] 30 hours later, the cells were washed with 2 mL HBSS (Hank's Balanced Salt Solution, Cat. Number 14025-092, Life Technologies), and then charged with 2 mL fresh HBSS. Then the cells were treated with 5 μM “CoroNa Green” (Cat. Number C36676, Life Technologies) at 37° C. 30 min later, the cells were washed 2× with 2 mL HBSS, and charged with 2 mL fresh HBSS. The culture dish was mounted on an Olympus fluorescence microscope equipped with a digital video camera to continuously capture the green fluorescence images of the cells. The cells were acutely treated with 100 mM NaCl, and then the changes in fluorescence cellular images were digitally recorded over a period of 3 min. There were about 4 cells per frame on average. The fluorescence intensities from each individual cell were traced at the resolution of a second. The traces of the intracellular fluorescence intensities from individual cells were overlaid and averaged at each time point. The average of the traces from the individual cells of each ASO concentration were plotted as provided in FIG. 30A using ImageJ program (version 1.50i, NIH). The average fluorescence intensity trace was taken as the individual intra-cellular sodium concentration trace for the cells treated with “SCN-ASO 7” at 0 (negative control), 100 or 1,000 zM.
“SCN-ASO 3” was evaluated for its ability to inhibit the sodium current in PC3 cells using “CoroNa Green” according to the protocol described in “SCN9A Example 5”, unless noted otherwise.
“SCN-ASO 8” was evaluated for its ability to inhibit the sodium current in PC3 cells using “CoroNa Green” according to the protocol described in “SCN9A Example 3”, unless noted otherwise.

Substance	in-frame PCR products of Δexons 21-23 and Δexons 21-24 (nested PCR Method B) [1]	muscle function by rotarod test (mdx mice)	decrease of sodium current (CoroNa) ([2]; PC3 cells, 100 zM)	decrease of sodium current / sodium channel activity (CoroNa) ([2]; PC3 cells, 1,000 zM) [%]	average cellular fluorescence intensity (CoroNa Green) ([2]; PC3 cells, 1,000 zM, at 100 sec after 100 mM NaCl) [arbitrary unit]
Fethoc-A(5)GA-G(6)CC(1O2)-TCA-A(5)AA(5)-T-NH2 (antisense AGAGCCTCAAAAT; Fethoc N-cap, C-terminal amide, chemistry not fully specified) [DMD-ASO 1]	detected in muscle samples of the ASO treatment groups	showed a strong propensity of improvement, but was not significant	–	–	–
Fethoc-AC(1O2)T-TA(5)C-G(6)CA-A(5)AA(5)-AC(1O2)A-A(5)-NH2 (ACTTACGCAAAAACAA; all peptide nucleic acid (PNA), [C(1O2)] at 2, 14, [A(5)] at 5, 10, 12, 16, [G(6)] at 7, 5' {Fethoc}, 3' {NH2}; peptide nucleic acid written N to C) [SCN-ASO 7]	–	–	no notable decrease	37	51.47
